The record followed here is patent publication US12612417B2, “Deuterated analogues of selenophenochromenes, synthesis thereof, and methods of using same agents” (Latvian Institute of Organic Synthesis, priority 2019, dated 2026).

For data set [1], the system named is HT-1080 (human fibrosarcoma). In words: In vitro cytotoxicity (MTT) on HT-1080. The data set is classed as cell-based. As to conditions: HT-1080, MTT, 48 h. How it is done:
(§1) Anticancer activity of deuterated selenopheno[h]chromenes was tested in vitro using cytotoxicity assay. Thus, monolayer tumor cell lines MDA-MB-435s (human melanoma), MCF-7 (human breast adenocarcinoma, estrogen-positive), MES-SA (human uterus sarcoma), HT-1080 (human fibrosarcoma), A549 (human lung carcinoma), GM08402 (human fibroblast, apparently healthy), 3T3 (mouse embryo fibroblasts), H9C2 (rat cardiomyocytes) were cultured in standard medium DMEM (Dulbecco's modified Eagle's medium) (“Sigma”) supplemented with 10% heat-inactivated fetal bovine serum (“Sigma”). The cell viability was assessed by addition of 3-(4,5-dimethylthiazol-2-yl)-2,5-diphenyltetrazolinium bromide (MTT). Briefly, cells were seeded (2−6×10^4 cells/ml) in 96-well plates and allowed to attach for 24 h.
(§2) Tested compound solutions were prepared and serially diluted to obtain appropriate concentrations. Cells were treated with different concentrations (0.032-100 μM) and incubated for 48 h at 37° C., 5% CO2 Then the culture medium was removed and medium containing 0.2 mg/ml MTT was added. After 3 h (37° C., 5% CO2), the MTT-containing medium was removed, and 200 μl of dimethyl sulfoxide (DMSO) was immediately added to each sample. The absorbance was assessed at 540 nm on a Tecan multiplate reader Infinite 1000 (Austria). The half-maximal inhibitory concentration (IC50) of each compound was calculated using Graph Pad Prism® 3.0.

Data set [2] is described as follows: In vitro cytotoxicity (MTT) on 3T3. The data set is classed as cell-based, mouse. The conditions noted are these: mouse, 3T3 embryo fibroblasts, 3T3, MTT. The procedure: as §1, §2
Data set [3] deals with A549 (human lung carcinoma). The experiment in a line: In vitro cytotoxicity (MTT) on A549. The data set is classed as cell-based. The conditions noted are these: 48 h. How it is done:
as §1, §2

Data set [4] is described as follows: In vitro cytotoxicity (MTT) on H9C2. The data set is classed as cell-based, rat. The conditions noted are these: rat, H9C2 cardiomyocytes. The procedure:
as §1, §2

Data set [5] deals with MES-SA (human uterus sarcoma). In words: In vitro cytotoxicity (MTT) on MES-SA. The data set is classed as cell-based. The conditions noted are these: 48 h. How it is done: as §1, §2
Data set [6] in a line: In vitro cytotoxicity (MTT) on GM08402. The data set is classed as cell-based, human. The conditions noted are these: human, GM08402 fibroblasts. The procedure: as §1, §2
In data set [7] the test system is MCF-7 (human breast adenocarcinoma, estrogen-positive). In words: In vitro cytotoxicity (MTT) on MCF-7. The data set is classed as cell-based. As to conditions: MCF-7, MTT, 48 h. The procedure:
as §1, §2

The next data set concerns MDA-MB-231. In words: In vitro cytotoxicity (MTT) on MDA-MB-231. It counts as cell-based, human. The conditions noted are these: MDA-MB-231, MTT, 48 h.
In data set [8] the test system is 3T3 (mouse embryo fibroblasts). In words: In vitro cytotoxicity (MTT) on 3T3. It counts as cell-based. As to conditions: 3T3, MTT, 48 h. How it is done:
as §1, §2

For data set [9], the system named is H9C2 (rat cardiomyocytes). The experiment in a line: In vitro cytotoxicity (MTT) on H9C2. The data set is classed as cell-based. The conditions noted are these: 48 h. How it is done:
as §1, §2

Data set [10] relates to GM08402 (human fibroblast, apparently healthy). In words: In vitro cytotoxicity (MTT) on GM08402. As to conditions: 48 h. It counts as cell-based. How it is done:
as §1, §2

Data set [11] can be described thus: Metabolic stability in vitro, lysate of human hepatoma cells HepG2. The data set is classed as in vitro ADME. The conditions noted are these: 37° C. How it is done:
Assay: the human hepatoma cells HepG2 (ATCC HB-8065) were grown in Eagle's Minimum Essential Medium supplemented with 10% fetal calf serum. The cells were harvested at 80% confluence. The hepatocytes were scraped, two time washed in Hank's Balanced Salt Solution (HBSS) buffer pH-7.4 and suspended in homogenization buffer composed of 10 mM Tris-HCl, 10 mM KCl, 0.15 mM MgCl2 pH 6.7. The cells were homogenized on ice by homogenizer LabGEN7 (Cole Palmer) at 5000 rpm 15 sec. Homogenized cells in HBSS with compound (protein concentration is 95 μg/ml) incubate 37° C. After 10, 30, 60, 120, 180, and 240 min collect 1 ml sample and add 0.1 ml 40% TCA, then centrifugation at 1200 g for 10 min. Supernatant collected and analyzed.
Results: The stability of deuterated selenopheno[h]chromenes I-1-I-3 compared with non-deuterated analogue methyl 7-bromo-8-((4-methylpiperazin-1-yl)methyl)-2-oxo-2H-selenopheno[3,2-h]chromene-3-carboxylate dihydrochloride (I-0) was tested in vitro using lysate of human hepatoma cells HepG2. The results are presented in FIG. 1 (x-axis—minutes of incubation, y-axis—percent of remained ester).

The IC50 is the point on the concentration scale where inhibition reaches its midpoint.

Counter-ions that a name gives are not always drawn.

As to `Cl.Cl.[2H]C([2H])([2H])C([2H])([2H])OC(=O)c1cc2ccc3c(Br)c(CN4CCN(C)CC4)[se]c3c2oc1=O` [Compound I-2, Ethyl-d5 7-bromo-8-((4-methylpiperazin-1-yl)methyl)-2-oxo-2H-selenopheno[3,2-h]chromene-3-carboxylate dihydrochloride], the IC50 in [1] (Homo sapiens) was 59 ± 6 µM; in data set [3] (Homo sapiens), over 100 µM; in [5] (Homo sapiens), 56 ± 15 µM; in data set [7] (Homo sapiens, MCF7), 46 ± 4 µM; in the data set on MDA-MB-231 (Homo sapiens), 90 ± 15 µM. In addition, the concentration for half-maximal inhibition (IC50) at 48 h in data set [2] amounted to 64 ± 9 µM; in data set [4], 73 ± 4 µM; in data set [6] it was 94 ± 8 µM.
As to `COC(=O)c1cc2ccc3c(Br)c(CN4CCN(C)CC4)[se]c3c2oc1=O` [Compound I-0, methyl 7-bromo-8-((4-methylpiperazin-1-yl)methyl)-2-oxo-2H-selenopheno[3,2-h]chromene-3-carboxylate dihydrochloride, reference compound], the 50% inhibitory concentration (IC50) in data set [1] (Homo sapiens) is 58 ± 5 µM; in data set [3] (Homo sapiens), over 100 µM; in [5] (Homo sapiens) it was 56 ± 1 µM; in [7] (Homo sapiens, MCF7), 54 ± 6 µM; in the data set with MDA-MB-231 (Homo sapiens) it was 95 ± 4 µM. For the same molecule, the 50% inhibitory concentration (IC50) at 48 h in data set [2] was found to be 100 ± 5 µM; in [4] it was 92 ± 12 µM; in data set [6] it was 77 ± 16 µM.
For the molecule `[2H]C([2H])([2H])OC(=O)c1cc2ccc3c(Br)c(CN4CCN(C)CC4)[se]c3c2oc1=O` [Compound I-1, Methyl-d3 7-bromo-8-((4-methylpiperazin-1-yl)methyl)-2-oxo-2H-selenopheno[3,2-h]chromene-3-carboxylate dihydrochloride], the IC50 in [1] (Homo sapiens) is 70 ± 6 µM; in data set [3] (Homo sapiens) it was 105 ± 7 µM; in data set [5] (Homo sapiens), 40 ± 7 µM; in [7] (Homo sapiens, MCF7) it was 82 ± 5 µM; in the data set on MDA-MB-231 (Homo sapiens), 84 ± 13 µM. Moreover, the values for the IC50 at 48 h in data set [2], in data set [4] and in data set [6] were 66 ± 11 µM, 82 ± 14 µM and 89 ± 16 µM, respectively.
“Butyl-d9 7-bromo-8-((4-methylpiperazin-1-yl)methyl)-2-oxo-2H-selenopheno[3,2-h]chromene-3-carboxylate dihydrochloride [Compound I-3]”: the IC50 in data set [1] was found to be 31 ± 3 µM; in data set [8], 34 ± 7 µM; in data set [3], 40 ± 13 µM; in data set [9] it was 30 ± 4 µM; in data set [5], 29 ± 3 µM; in [10], 62 ± 3 µM. Further, the half-maximal inhibitory concentration (IC50) was 70 ± 3 µM in data set [7] and 35 ± 8 µM in the data set on MDA-MB-231. The “percent of remained ester” value in data set [11] (after 240 minutes of incubation) came out at 24%. Besides, the “stability to hydrolysis (in words)” value in data set [11] (incubation up to 240 min, FIG. 1) is reported as “highest stability to hydrolysis”.
